According to ChEMBL document CHEMBL1150590, “Cytotoxic and antifungal triterpene glycosides from the Patagonian sea cucumber Hemoiedema spectabilis” (J Nat Prod, 2002):

Assays:
Cladosporium cucumerinum [1] = assay: Growth inhibition of Cladosporium cucumerinum after 2 to 3 days by bioautographic assay; assay type: functional, organism-based
Artemia salina = assay: Toxicity against Artemia salina; assay type: organism-based; settings: in vivo
Cladosporium cucumerinum [2] = assay: Antifungal activity against Cladosporium cucumerinum at 1.5 to 50 ug/spot after 2 to 3 days by bioautographic assay; assay type: functional

SMILES | Activity (Cladosporium cucumerinum [1]) | LC50 (Artemia salina) [ppm] | inhibition zone (IZ) (Cladosporium cucumerinum [2]) [mm]
C=C(C)CCC[C@]1(C)OC(=O)[C@]23CC=C4[C@@H](CC[C@H]5C(C)(C)[C@@H](O[C@@H]6OC[C@@H](O)[C@H](O)[C@H]6O[C@@H]6O[C@H](C)[C@@H](O[C@@H]7O[C@H](CO)[C@@H](O)[C@H](O[C@@H]8O[C@H](CO)[C@@H](O)[C@H](OC)[C@H]8O)[C@H]7O)[C@H](O)[C@H]6O)CC[C@]45C)[C@]2(C)CC(=O)[C@@H]31 [DESULFATED HEMOIEDEMOSIDE A] | Dose-dependent effect | 424.5 | –
C=C(C)CCC[C@]1(C)OC(=O)[C@]23CC=C4[C@@H](CC[C@H]5C(C)(C)[C@@H](O[C@@H]6OC[C@@H](OS(=O)(=O)[O-])[C@H](O)[C@H]6O[C@@H]6O[C@H](C)[C@@H](O[C@@H]7O[C@H](COS(=O)(=O)[O-])[C@@H](O)[C@H](O[C@@H]8O[C@H](CO)[C@@H](O)[C@H](OC)[C@H]8O)[C@H]7O)[C@H](O)[C@H]6O)CC[C@]45C)[C@]2(C)CC(=O)[C@@H]31.[Na+].[Na+] [HEMOIEDEMOSIDE A] | Dose-dependent effect | 18.7 | 8
CO[C@@H]1[C@@H](O)[C@H](O[C@@H]2[C@@H](O)[C@H](O[C@H]3[C@H](O)[C@@H](O)[C@H](O[C@H]4[C@H](O[C@H]5CC[C@]6(C)[C@@H]7C[C@H](O)[C@]89C(=O)O[C@@](C)(CCCC(C)C)[C@@]8(O)CC[C@@]9(C)C7=CC[C@H]6C5(C)C)OC[C@@H](OS(=O)(=O)[O-])[C@@H]4O)O[C@@H]3C)O[C@H](COS(=O)(=O)[O-])[C@H]2O)O[C@H](CO)[C@H]1O.[Na+].[Na+] [PATAGONICOSIDE A] | – | – | 8
